Experimental data reported in patent US11407715B2, “Substituted indoline derivatives as dengue viral replication inhibitors” (JANSSEN PHARMACEUTICALS, INC., priority 2017, dated 2022).

Legend:
DENV-2 16681 strain = assay: microbe, parasite or virus in culture; type: cell-based, Dengue virus; conditions: for EC50: DENV-2 16681 eGFP, Vero cells, MOI 0.5, 3 days; for SI: SI=CC50/EC50, DENV-2 antiviral assay
DENV-1 strain TC974#666 = assay: Tetravalent RT-qPCR assay, serotype 1; type: cell-based, Dengue virus; conditions: RT-qPCR serotype 1 TC974#666, Vero cells
Description: (§1) The antiviral activity of the compounds of the invention was tested against DENV-1 strain TC974#666 (NCPV), DENV-2 strain 16681, DENV-3 strain H87 (NCPV) and DENV-4 strain H241 (NCPV) in a RT-qPCR assay. Therefore, Vero cells were infected with either DENV-1, or -2, or -3, or -4 in the presence or absence of test compounds. At day 3 post-infection, the cells were lysed and cell lysates were used to prepare cDNA of both a viral target (the 3′UTR of DENV; Table 2) and a cellular reference gene (β-actin, Table 2). Subsequently, a duplex real time PCR was performed on a Lightcycler480 instrument. The generated Cp value is inversely proportional to the amount of RNA expression of these targets. Inhibition of DENV replication by a test compound results in a shift of Cp's for the 3′UTR gene. On the other hand, if a test compound is toxic to the cells, a similar effect on β-actin expression will be observed. The comparative ΔΔCp method is used to calculate ECs50, which is based on the relative gene expression of the target gene (3′UTR) normalized with the cellular housekeeping gene (β-actin). In addition, CC50 values are determined based on the Cp values acquired for the housekeeping gene β-actin.
(§2) The culture medium consisted of minimal essential medium supplemented with 2% of heat-inactivated fetal calf serum, 0.04% gentamycin (50 mg/mL) and 2 mM of L-glutamine. Vero cells, obtained from ECACC, were suspended in culture medium and 75 μL/well was added in 96-well plates (10000 cells/well), which already contain the antiviral compounds. […] In addition, each plate contains wells which are assigned as virus controls (containing cells and virus in the absence of compound) and cell controls (containing cells in the absence of virus and compound). Once the cells were added in the plates, the plates were incubated in a fully humidified incubator (37° C., 5% CO2) until the next day. Dengue viruses serotype-1, 2, 3 and 4 were diluted in order to obtain a Cp of ˜22-24 in the assay. Therefore, 25 μL of virus suspension was added to all the wells containing test compound and to the wells assigned as virus control. In parallel, 25 μL of culture medium was added to the cell controls. Next, the plates were incubated for 3 days in a fully humidified incubator (37° C., 5% CO2). After 3 days, the supernatant was removed from the wells and the cells were washed twice with ice-cold PBS (˜100 μL). The cell pellets within the 96-well plates were stored at −80° C. for at least 1 day. Next, RNA was extracted using the Cells-to-CT™ lysis kit, according to the manufacturer's guideline (Life Technologies). The cell lysates can be stored at −80C or immediately used in the reverse transcription step.
(§3) In preparation of the reverse transcription step, mix A (table 3A) was prepared and 7.57 μL/well was dispensed in a 96-well plate. After addition of 5 μL of the cell lysates, a five minute denaturation step at 75° C. was performed (table 3B). Afterwards, 7.43 μL of mix B was added (table 3C) and the reverse transcription step was initiated (table 3D) to generate cDNA.
(§4) Finally, a RT-qPCR mix was prepared, mix C (table 4A), and 22.02 μL/well was dispensed in 96-well LightCycler qPCR plates to which 3 μL of cDNA was added and the qPCR was performed according to the conditions in table 4B on a LightCycler 480.
(§5) Using the LightCycler software and an in-house LIMS system, dose response curves for each compound were calculated and the half maximal effective concentration (EC50) and the half maximal cytotoxic concentration (CC50) were determined (Tables 5-8).

DENV-2 strain 16681 = assay: Tetravalent RT-qPCR assay, serotype 2; type: cell-based, Dengue virus; conditions: RT-qPCR serotype 2 16681, Vero cells
Description: as §1, §2, §3, §4, §5

DENV-3 strain H87 = assay: Tetravalent RT-qPCR assay, serotype 3; type: cell-based, Dengue virus; conditions: RT-qPCR serotype 3 H87, Vero cells
Description: as §1, §2, §3, §4, §5

DENV-4 strain H241 = assay: Tetravalent RT-qPCR assay, serotype 4; type: cell-based, Dengue virus; conditions: RT-qPCR serotype 4 H241, Vero cells
Description: as §1, §2, §3, §4, §5

Vero cells = conditions: African green monkey

| SMILES | EC50 (DENV-2 16681 strain) [nM] | SI (DENV-2 16681 strain) | EC50 (DENV-1 strain TC974#666; Dengue virus, DENV1, Vero) [nM] | EC50 (DENV-2 strain 16681; Dengue virus, DENV2, Vero) [nM] | EC50 (DENV-3 strain H87; Dengue virus, DENV3, Vero) [nM] | EC50 (DENV-4 strain H241; Dengue virus, DENV4, Vero) [nM] | CC50 (Vero cells) [nM] | EC50 (DENV-1 strain TC974#666) [nM] | EC50 (DENV-2 strain 16681) [nM] | EC50 (DENV-3 strain H87) [nM] | EC50 (DENV-4 strain H241) [nM] |
| --- | --- | --- | --- | --- | --- | --- | --- | --- | --- | --- | --- |
| COc1cc(NC(C(=O)N2CCc3cc(OC)c(C(F)(F)F)cc32)c2ccc(Cl)cc2)cc(OC2CC(C(=O)O)C2)c1 (stereo not drawn) [Compound 23B] | 0.062 | >88755 | 0.092 | 0.034 | 0.33 | 2.7 | 12000 |  |  |  |  |
| COc1cc(NC(C(=O)N2CCc3cc(F)c(OC(F)(F)F)cc32)c2ccc(Cl)cc2)cc(OCC2CC(C(=O)O)C2)c1 (stereo not drawn) [Compound 31A] | 0.2 | 70300 |  |  |  |  | 12000 | 0.19 | 0.11 | 1.5 | 17 |
| COc1cc(NC(C(=O)N2CCc3ccc(OC(F)(F)F)cc32)c2ccc(Cl)cc2)cc(OCC(C)CC(=O)O)c1 (single isomer, unassigned) [Compound 4D] | 0.17 | 81200 |  |  |  |  | 13000 | 0.23 | 0.13 | 2.3 | 26 |
| COc1cc(NC(C(=O)N2CCc3cc(OC)c(C(F)(F)F)cc32)c2ccc(Cl)cc2)cc(OCC2CC(C(=O)O)C2)c1 (stereo not drawn) [Compound 25B] | 0.28 | 52900 |  |  |  |  | 13000 | 1.3 | 0.27 | 6.3 | 55 |
| COc1cc(NC(C(=O)N2CCc3ccc(OC(F)(F)F)cc32)c2ccc(Cl)cc2)cc(OC2CC(C(=O)O)C2)c1 (stereo not drawn) [Compound 7B] | 0.12 | 121027 |  |  |  |  | 13000 | 0.15 | 0.12 | 1.8 | 13 |
| COc1cc(NC2CC(C(=O)O)C2)cc(NC(C(=O)N2CCc3ccc(OC(F)(F)F)cc32)c2ccc(Cl)cc2)c1 (single isomer, unassigned) [Compound 33C] | 3.2 | 5930 |  | 1 |  |  | 19000 | 0.97 |  | 11 | 340 |
| COc1cc(NC(C(=O)N2CCc3ccc(OC(F)(F)F)cc32)c2ccc(Cl)cc2)cc(OC23CC(C(=O)O)(C2)C3)c1 (single isomer, unassigned) [Compound 9B] | 0.39 | 32500 | 0.81 | 0.5 | 8 | 36 | 12000 |  |  |  |  |
| COc1cc(NC(C(=O)N2CCc3ccc(OC(F)(F)F)cc32)c2ccc(Cl)cc2)cc(OCC2CC2C(=O)O)c1 (stereo not drawn) [Compound 6AB] | 0.016 | >199223 |  |  |  |  | 12000 | 0.022 | 0.017 | 0.13 | 2.9 |
| COc1cc(NC(C(=O)N2CCc3cc(F)c(OC(F)(F)F)cc32)c2ccc(Cl)cc2)cc(OC2CC(C(=O)O)C2)c1 (single isomer, unassigned) [Compound 27B] | 0.022 | >205482 | 0.013 | 0.014 | 0.091 | 0.81 | 13000 |  |  |  |  |
| COc1cc(NC(C(=O)N2CCc3ccc(OC(F)(F)F)cc32)c2ccc(Cl)cc2OC)cc(OCC2CC2C(=O)O)c1 (stereo not drawn) [Compound 19AB] | 0.012 | >390600 |  |  |  |  | 12000 | 0.021 | 0.014 | 0.14 | 0.69 |
| COc1cc(NC(C(=O)N2CCc3ccc(OC(F)(F)F)cc32)c2ccc(Cl)cc2)cc(OC2CC(C(=O)O)C2)c1 (stereo not drawn) [Compound 8B] | 0.023 | >102836 |  |  |  |  | 14000 | 0.032 | 0.025 | 0.16 | 1.3 |
| COc1cc(NC(C(=O)N2CCc3ccc(OC(F)(F)F)cc32)c2ccc(Cl)cc2)cc(OCC2(F)CC2C(=O)O)c1 (stereo not drawn) [Compound 28AB] | 0.68 | 19000 |  |  |  |  | 13000 | 0.41 | 0.31 | 5.3 | 69 |
| COc1cc(NC(C(=O)N2CCc3ccc(OC(F)(F)F)cc32)c2ccc(Cl)cc2)cc(OCC2CC2C(=O)O)c1 (stereo not drawn) [Compound 6BB] | 0.18 | 83800 |  |  |  |  | 12000 | 0.13 | 0.12 | 1.6 | 20 |
| COc1cc(NC(C(=O)N2CCc3ccc(OC(F)(F)F)cc32)c2ccc(Cl)cc2)cc(OCCC(=O)O)c1 (single isomer, unassigned) [Compound 12B] | 0.69 | 21500 | 0.47 | 0.53 | 4.7 | 39 | 14000 |  |  |  |  |
| COc1cc(NC(C(=O)N2CCc3ccc(OC(F)(F)F)cc32)c2ccc(Cl)cc2OC)cc(OCCC(C)C(=O)O)c1 (single isomer, unassigned) [Compound 17C] | 0.23 | 39300 | 0.19 | 0.11 | 3.6 | 16 | 12000 |  |  |  |  |
| COc1cc(NC(C(=O)N2CCc3cc(OC)c(C(F)(F)F)cc32)c2ccc(Cl)cc2)cc(OCC2CC2C(=O)O)c1 (stereo not drawn) [Compound 22AB] | 0.034 | >196427 |  |  |  |  | 12000 | 0.091 | 0.029 | 0.49 | 3.3 |
| COc1cc(NC(C(=O)N2CCc3ccc(OC(F)(F)F)cc32)c2ccc(Cl)cc2)cc(OCCC(C)C(=O)O)c1 (single isomer, unassigned) [Compound 1D] | 0.23 | 57700 |  |  |  |  | 12000 | 0.27 | 0.23 | 3.4 | 24 |
| COc1cc(NC2CC(C(=O)O)C2)cc(NC(C(=O)N2CCc3ccc(OC(F)(F)F)cc32)c2ccc(Cl)cc2)c1 (single isomer, unassigned) [Compound 33D] | 0.52 | 39000 |  |  |  |  | 18000 | 0.48 | 0.66 | 2.3 | 22 |
| COc1cc(NC(C(=O)N2CCc3ccc(OC(F)(F)F)cc32)c2ccc(Cl)cc2)cc(OCC2(F)CC2C(=O)O)c1 (stereo not drawn) [Compound 29AB] | 0.53 | 22300 |  |  |  |  | 12000 | 0.23 | 0.25 | 4.6 | 35 |
| COc1cc(NC(C(=O)N2CCc3cc(OC)c(C(F)(F)F)cc32)c2ccc(Cl)cc2)cc(OCCC(C)(C)C(=O)O)c1 (single isomer, unassigned) [Compound 21B] | 0.32 | 45200 | 1 | 0.16 | 6.5 | 48 | 12000 |  |  |  |  |
| COc1cc(NC(C(=O)N2CCc3ccc(OC(F)(F)F)cc32)c2ccc(Cl)cc2OC)cc(OCCC(C)(C)C(=O)O)c1 (single isomer, unassigned) [Compound 18B] | 0.28 | 62700 | 0.55 | 0.34 | 4.3 | 33 | 12000 |  |  |  |  |
